Usually melting point stands for the temperature of the solid-liquid transition. The term IC50 denotes the concentration that gives 50% inhibition. For orientation: Ki means the equilibrium dissociation constant of an inhibitor or competing ligand from its target.

The values that follow come from paper PMC10978946, “Coumarin linked to 2-phenylbenzimidazole derivatives as potent α-glucosidase inhibitors” (Scientific Reports, 2024).

Like-named read-outs stand apart in the source and are kept apart here.

Series [1] has as its target T1, α-Glucosidase (Saccharomyces cerevisiae, EC3.2.1.20) (Saccharomyces cerevisiae, UniProt P53341).
T1 construct: purchased Sigma-Aldrich
Briefly: biochemical. The format is biochemical. As to the method:
α-Glucosidase (Saccharomyces cerevisiae, EC3.2.1.20, 20 U/mg) and the substrate, […] (p-NPG) were purchased from Sigma-Aldrich, and the assay was performed exactly according to our previous report[34],[35].

Series [2] has as its target α-glucosidase. Particulars: cited from earlier work; for fold more potent than acarbose: literature coumarin derivatives versus acarbose.
The target of series [3] is T2, α-glucosidase (Saccharomyces cerevisiae, UniProt P53341).
T2 construct: purchased Sigma-Aldrich
Briefly: Enzyme kinetic studies (Lineweaver–Burk plot, secondary plot). The format is biochemical. As for the experimental part:
A Lineweaver–Burk plot was generated to identify the type of inhibition and Km value was determined from the plot between the reciprocal of the substrate concentration (1/[S]) and reciprocal of enzyme rate (1/V) over various inhibitor concentrations. Experimental Ki value was constructed by secondary plots of the inhibitor concentration [I] versus Km.

The next series concerns the target yeast α-glucosidase. Further details: method as in PMID 26637946. Particulars: compound D and its acarbose control; cited from earlier work.
[4] abbreviates: supplement sheet IC50 values, unrounded, unit inferred.

T2 sequence (P53341 whole entry): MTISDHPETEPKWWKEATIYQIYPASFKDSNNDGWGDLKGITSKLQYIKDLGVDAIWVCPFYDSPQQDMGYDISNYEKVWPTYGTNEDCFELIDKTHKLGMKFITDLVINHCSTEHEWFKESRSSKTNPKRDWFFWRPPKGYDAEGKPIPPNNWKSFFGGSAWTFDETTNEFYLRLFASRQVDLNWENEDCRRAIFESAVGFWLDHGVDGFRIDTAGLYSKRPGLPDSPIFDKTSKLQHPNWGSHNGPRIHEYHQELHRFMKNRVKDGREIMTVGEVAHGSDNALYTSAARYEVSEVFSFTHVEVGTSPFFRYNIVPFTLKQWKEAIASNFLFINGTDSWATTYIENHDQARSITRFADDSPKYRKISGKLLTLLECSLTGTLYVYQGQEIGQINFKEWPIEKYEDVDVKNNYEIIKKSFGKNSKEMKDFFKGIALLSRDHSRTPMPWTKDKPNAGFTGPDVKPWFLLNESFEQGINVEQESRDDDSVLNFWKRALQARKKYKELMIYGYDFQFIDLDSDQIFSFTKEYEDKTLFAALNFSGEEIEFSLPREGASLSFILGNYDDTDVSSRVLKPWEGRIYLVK
T1 sequence (P53341 whole entry): as above

`O=C(Oc1ccc2ccc(=O)oc2c1)c1ccc2[nH]c(-c3ccc(F)cc3F)nc2c1` [Compound 5g, 2-Oxo-2H-chromen-7-yl 2-(2,4-difluorophenyl)-1H-benzo[d]imidazole-5-carboxylate] showed a melting point of 201 to 203 °C. In series [1], this compound registered a concentration for half-maximal inhibition (IC50) of 46.7 ± 0.2 µM. Also, half-maximal inhibition in series [1] (setting [4]) (IC50) was put at 46.7 µM.

`O=C(Oc1ccc2ccc(=O)oc2c1)c1ccc2[nH]c(-c3ccc(Cl)cc3)nc2c1` [Compound 5c, 2-Oxo-2H-chromen-7-yl 2-(4-chlorophenyl)-1H-benzo[d]imidazole-5-carboxylate] registered a melting point of 180 to 182 °C. The IC50 in series [1] stood at 26.9 ± 1.1 µM. The compound further gave an IC50 in series [1] (setting [4]) of 26.9 µM.

For `COc1cc(-c2nc3ccccc3[nH]2)ccc1OCC(=O)Nc1ccc(F)cc1` [Compound F], the IC50 at α-glucosidase [2] (Fig. 1, compound F and its acarbose control) is 99.6 µM.

Consider `O=C(Oc1ccc2ccc(=O)oc2c1)c1ccc2[nH]c(-c3ccccc3O)nc2c1` [Compound 5k, 2-Oxo-2H-chromen-7-yl 2-(2-hydroxyphenyl)-1H-benzo[d]imidazole-5-carboxylate], for which the melting point fell in the range of 187 to 189 °C. The inhibition pattern result on α-glucosidase [3] (Lineweaver–Burk plot, Km increased, Vmax unchanged) was “competitive inhibition pattern”. The inhibition constant (Ki) on α-glucosidase [3] (from plot of Km versus inhibitor concentration, substrate p-nitrophenyl α-D-glucopyranoside 1–16 mM, read-out: inhibition constant (Ki)) came to 10.4 µM. Further, in series [1], inhibition was half-maximal at 10.8 ± 0.1 µM (IC50). In addition, the “fold more potent than compound 5d” value in series [1] (IC50 comparison 5k versus 5d) is reported as “twofold”.

Turning to `Cc1c(-c2nc3cc(C(=O)Oc4ccc5ccc(=O)oc5c4)ccc3[nH]2)cccc1[N+](=O)[O-]` [Compound 5l, 2-Oxo-2H-chromen-7-yl 2-(2-methyl-3-nitrophenyl)-1H-benzo[d]imidazole-5-carboxylate], the melting point fell in the range of 194 to 196 °C. This compound also showed an IC50 in series [1] of 119.5 ± 0.1 µM. Besides, the “fold decrease of inhibitory activity versus compound 5m” value in series [1] (3-chloro replaced with 3-nitro) is recorded as “three folds”. For the same compound, in series [1] (setting [4]), the IC50 was 119 µM.

With `Cc1ccc(/C=C/C(=O)Oc2cc(=O)oc3ccccc23)cc1` [Compound B], the IC50 at α-glucosidase [2] (Fig. 1, compound B and its ursolic acid control) was 13 µM.

As to `Cc1ccc(-c2nc3cc(C(=O)Oc4ccc5ccc(=O)oc5c4)ccc3[nH]2)cc1` [Compound 5i, 2-Oxo-2H-chromen-7-yl 2-(p-tolyl)-1H-benzo[d]imidazole-5-carboxylate], the melting point lay within 193 to 195 °C. Besides, 44.9 µM corresponded to half-maximal inhibition in series [1] (IC50). Further, inhibition in series [1] (setting [4]) was half-maximal at 44.9 µM (IC50).

As to `O=C(Oc1ccc2ccc(=O)oc2c1)c1ccc2[nH]c(-c3ccccc3)nc2c1` [Compound 5a, 2-Oxo-2H-chromen-7-yl 2-phenyl-1H-benzo[d]imidazole-5-carboxylate], the melting point was 180 to 183 °C. Besides, in series [1], the IC50 is 50 ± 0.8 µM. Further, the “fold better than acarbose” value in series [1] (ratio of IC50 values versus acarbose) is recorded as “approximately 15 fold”. The same compound displayed a half-inhibitory concentration (IC50) in series [1] (setting [4]) of 50 µM.

`O=C(N/N=C/c1ccccc1O)c1cc2ccccc2oc1=O` [Compound A]: the IC50 on α-glucosidase [2] (Fig. 1, compound A and its acarbose control) is 1.1 µM. Further, in the series on α-glucosidase [2], the “fold more potent than acarbose” value is recorded as 35.8 fold.

`O=C(Oc1ccc2ccc(=O)oc2c1)c1ccc2[nH]c(-c3cccc(Br)c3)nc2c1` [Compound 5f, 2-Oxo-2H-chromen-7-yl 2-(3-bromophenyl)-1H-benzo[d]imidazole-5-carboxylate] returned a melting point of 172 to 174 °C. Besides, the 50% inhibitory concentration (IC50) in series [1] is 25.2 ± 0.5 µM. In series [1] (setting [4]), the half-inhibitory concentration (IC50) came out at 25.2 µM.

On to `Cc1cc2nc(-c3ccc(C(=O)N/N=C/c4cc(O)c(O)c(O)c4)cc3)[nH]c2cc1C` [Compound D], for which the IC50 on yeast α-glucosidase is 8.4 µM.

In turn, `O=C(Oc1ccc2ccc(=O)oc2c1)c1ccc2[nH]c(-c3ccc(Br)cc3)nc2c1` [Compound 5d, 2-Oxo-2H-chromen-7-yl 2-(4-bromophenyl)-1H-benzo[d]imidazole-5-carboxylate] gave a melting point of 179 to 181 °C. The compound also had an IC50 in series [1] of 22.9 ± 0.2 µM. For the same compound, inhibition in series [1] (setting [4]) was half-maximal at 23 µM (IC50).

Regarding `O=C(Oc1ccc2ccc(=O)oc2c1)c1ccc2[nH]c(-c3ccccc3Cl)nc2c1` [Compound 5e, 2-Oxo-2H-chromen-7-yl 2-(2-chlorophenyl)-1H-benzo[d]imidazole-5-carboxylate], the melting point lay in the range of 189 to 191 °C. The compound further gave an IC50 in series [1] of 34.7 ± 0.7 µM. In addition, in series [1] (setting [4]), the 50% inhibitory concentration (IC50) was 34.7 µM.

Consider `COc1ccc(-c2nc3cc(C(=O)N/N=C/c4cccs4)ccc3[nH]2)cc1` [Compound E], for which the half-maximal inhibitory concentration (IC50) at α-glucosidase [2] (Fig. 1, compound E and its acarbose control) is 60.1 µM.

Regarding `C/C(=N\OC(=O)/C=C/c1ccc(Br)cc1)c1cc2ccc(Br)cc2oc1=O` [Compound C], the IC50 on α-glucosidase [2] (Fig. 1, compound C and its acarbose control) was 2.54 µM. For the same compound, in the series with α-glucosidase [2], the “fold more potent than acarbose” value is 252 fold.

`O=C(Oc1ccc2ccc(=O)oc2c1)c1ccc2[nH]c(-c3cccc(Cl)c3Cl)nc2c1` [Compound 5h, 2-Oxo-2H-chromen-7-yl 2-(2,3-dichlorophenyl)-1H-benzo[d]imidazole-5-carboxylate] showed a melting point of 182 to 184 °C. This compound came in with an IC50 in series [1] of 45.2 ± 0.2 µM. The same compound returned an IC50 in series [1] (setting [4]) of 45.3 µM.

In turn, `COc1ccc(-c2nc3cc(C(=O)Oc4ccc5ccc(=O)oc5c4)ccc3[nH]2)cc1` [Compound 5j, 2-Oxo-2H-chromen-7-yl 2-(4-methoxyphenyl)-1H-benzo[d]imidazole-5-carboxylate] yielded a melting point of 169 to 171 °C. The 50% inhibitory concentration (IC50) in series [1] stood at 40.3 ± 0.5 µM.

As to `O=C(Oc1ccc2ccc(=O)oc2c1)c1ccc2[nH]c(-c3ccc(F)cc3)nc2c1` [Compound 5b, 2-Oxo-2H-chromen-7-yl 2-(4-fluorophenyl)-1H-benzo[d]imidazole-5-carboxylate], the melting point was in the range of 195 to 197 °C. The compound also registered an IC50 in series [1] of 30.6 ± 0.4 µM. The same compound displayed a 50% inhibitory concentration (IC50) in series [1] (setting [4]) of 30.6 µM.

For the compound `Cc1c(Cl)cccc1-c1nc2cc(C(=O)Oc3ccc4ccc(=O)oc4c3)ccc2[nH]1` [Compound 5m, 2-Oxo-2H-chromen-7-yl 2-(3-chloro-2-methylphenyl)-1H-benzo[d]imidazole-5-carboxylate], the melting point is 182 to 184 °C. Also, half-maximal inhibition in series [1] (IC50) required 40.9 ± 1.1 µM. Also, in series [1] (setting [4]), half-maximal inhibition (IC50) was put at 40.9 µM.
